Converted amounts (≈) assume the structure as drawn.

The source of these data is patent US4199570A, “1-N-Hetero containing aminoglycoside derivatives” (Shionogi & Co., Ltd., priority 1977, dated 1980).

For one series, the system named is Proteus mirabilis TB-617. Put plainly: MIC (Table 3). The conditions noted are these: TB617, read-out: Minimum Inhibitory Concentration (MIC). The series is classed as cell-based.
Series [1] deals with Citrobactor freundii Ct-31. Put plainly: MIC (Table 2). The conditions noted are these: read-out: Minimum Inhibitory Concentration (MIC).
Series [2] has as its system Escherichia coli W-677/JR 214. The experiment in a line: MIC (Table 2). To be noted: W677/JR214, read-out: Minimum Inhibitory Concentration (MIC).
Another series concerns Escherichia coli TB-705. Put plainly: MIC (Table 2). The conditions noted are these: TB705, read-out: Minimum Inhibitory Concentration (MIC). It is filed as cell-based.
Series [3] concerns Streptococcus pyogenes ATCC 10389. The experiment in a line: MIC (Table 2). The conditions noted are these: ATCC10389, read-out: Minimum Inhibitory Concentration (MIC).
A further series has as its system Proteus inconstans In-27. The experiment in a line: MIC (Table 2). It is filed as cell-based. The conditions noted are these: Providencia alcalifaciens, IN27, tobramycin resistant strain, read-out: Minimum Inhibitory Concentration (MIC).
The test system of the next series is Sarcina lutea PCI 1001. Put plainly: MIC (Table 2). It is filed as cell-based. To be noted: Micrococcus luteus, PCI1001, read-out: Minimum Inhibitory Concentration (MIC).
The subject of series [4] is Escherichia coli W-677/JR 762. Put plainly: MIC (Table 2). To be noted: W677/JR762, read-out: Minimum Inhibitory Concentration (MIC).
In series [5] the test system is Pseudomonas aeruginosa PP-6. The experiment in a line: MIC (Table 3). It is filed as cell-based. The conditions noted are these: PP6, read-out: Minimum Inhibitory Concentration (MIC).
For series [6], the system named is Klebsiella pneumoniae Kl 38. The experiment in a line: MIC (Table 2). To be noted: KL38, read-out: Minimum Inhibitory Concentration (MIC).
The test system of series [7] is Enterobacter cloacae CI-38. Put plainly: MIC (Table 2). To be noted: CI38, read-out: Minimum Inhibitory Concentration (MIC).
Series [8] has as its system Pseudomonas aeruginosa PP-6. Put plainly: MIC (Table 2). The conditions noted are these: PP6, read-out: Minimum Inhibitory Concentration (MIC).
The subject of series [9] is Staphylococcus aureus 80285. The experiment in a line: MIC (Table 2). The conditions noted are these: Staphylococcus aureus, 80285, read-out: Minimum Inhibitory Concentration (MIC).
Series [10] concerns Streptococcus pyogenes C-203. Put plainly: MIC (Table 3). To be noted: C203, read-out: Minimum Inhibitory Concentration (MIC).
Series [11] relates to Serratia marcescens MA-26. Put plainly: MIC (Table 2). The conditions noted are these: MA26, read-out: Minimum Inhibitory Concentration (MIC).
Series [12] deals with Escherichia coli W-677/JR-762. The experiment in a line: MIC (Table 3). To be noted: W677/JR762, read-out: Minimum Inhibitory Concentration (MIC).
Another series relates to Proteus mirabilis Pm-5. Put plainly: MIC (Table 2). The conditions noted are these: PM5, read-out: Minimum Inhibitory Concentration (MIC).
In series [13] the test system is Escherichia coli W-677/JR 66. The experiment in a line: MIC (Table 2). To be noted: W677/JR66, read-out: Minimum Inhibitory Concentration (MIC).
For series [14] the following is noted: compared with kanamycin A; cited from earlier work.
For series [15], the system named is kanamycin A resistant strains. To be noted: cited from earlier work.

In the case of `NC[C@H]1O[C@H](O[C@H]2[C@H](O)[C@@H](O[C@H]3O[C@H](CO)[C@@H](O)[C@H](N)[C@H]3O)[C@H](N)C[C@@H]2N)[C@H](N)C[C@@H]1O` [TOB, tobramycin], the MIC in the series with Proteus mirabilis TB-617 is 6.2 µg/mL (≈ 13.3 µM); in series [1], 3.13 µg/mL (≈ 6.69 µM); in series [2] it was 100 µg/mL (≈ 214 µM); in the series with Escherichia coli TB-705, 6.25 µg/mL (≈ 13.4 µM); in [3] it was 25 µg/mL (≈ 53.5 µM); in the series on Proteus inconstans In-27 it was 12.5 µg/mL (≈ 26.7 µM). Besides, the MIC in the series with Sarcina lutea PCI 1001 was 12.5 µg/mL (≈ 26.7 µM); in series [4] it was 100 µg/mL (≈ 214 µM); in series [5], 100 µg/mL (≈ 214 µM); in series [6] it was 1.56 µg/mL (≈ 3.34 µM); in series [7], 0.78 µg/mL (≈ 1.67 µM); in series [8] it was above 100 µg/mL. Also, the MIC in [9] stood at 0.78 µg/mL (≈ 1.67 µM); in series [10], 6.2 µg/mL (≈ 13.3 µM); in series [11], 50 µg/mL (≈ 107 µM); in series [12] it was 25 µg/mL (≈ 53.5 µM); in the series with Proteus mirabilis Pm-5, 12.5 µg/mL (≈ 26.7 µM); in series [13] it was 25 µg/mL (≈ 53.5 µM).

As for `NC[C@H]1O[C@H](O[C@H]2[C@H](O)[C@@H](O[C@H]3O[C@H](CO)[C@@H](O)[C@H](N)[C@H]3O)[C@H](NC(=O)C3(O)CNC3)C[C@@H]2N)[C@H](N)C[C@@H]1O` [Comp. (1), 1-N-(3-hydroxyazetidine-3-carbonyl)tobramycin], the MIC in [1] amounted to 1.56 µg/mL (≈ 2.75 µM); in series [2] it was 3.13 µg/mL (≈ 5.52 µM); with Escherichia coli TB-705 it was 3.13 µg/mL (≈ 5.52 µM); in series [3], 25 µg/mL (≈ 44.1 µM); in the series on Proteus inconstans In-27, 12.5 µg/mL (≈ 22.1 µM); with Sarcina lutea PCI 1001 it was 3.13 µg/mL (≈ 5.52 µM). Moreover, the MIC in [4] is 3.13 µg/mL (≈ 5.52 µM); in series [6], 0.78 µg/mL (≈ 1.38 µM); in series [7], 0.78 µg/mL (≈ 1.38 µM); in series [8], 3.13 µg/mL (≈ 5.52 µM); in series [9], 0.78 µg/mL (≈ 1.38 µM); in series [11] it was 6.25 µg/mL (≈ 11 µM). Further, the MIC is 1.56 µg/mL (≈ 2.75 µM) in the series with Proteus mirabilis Pm-5 and 3.13 µg/mL (≈ 5.52 µM) in [13].

For `NC[C@H]1O[C@H](O[C@H]2[C@H](O)[C@@H](O[C@H]3O[C@H](CO)[C@@H](O)[C@H](N)[C@H]3O)[C@H](NC(=O)C3(O)CNC3)C[C@@H]2N)[C@H](O)[C@@H](O)[C@@H]1O` [Comp. (2), 1-N-(3-hydroxyazetidine-3-carbonyl)kanamycin A], the MIC in series [1] was found to be 3.13 µg/mL (≈ 5.36 µM); in [2], 3.13 µg/mL (≈ 5.36 µM); in the series on Escherichia coli TB-705, 12.5 µg/mL (≈ 21.4 µM); in series [3], 50 µg/mL (≈ 85.7 µM); with Proteus inconstans In-27, 6.25 µg/mL (≈ 10.7 µM); with Sarcina lutea PCI 1001, 12.5 µg/mL (≈ 21.4 µM). For the same compound, the MIC stood at 12.5 µg/mL (≈ 21.4 µM) in series [4]; 1.56 µg/mL (≈ 2.67 µM) in [6]; 3.13 µg/mL (≈ 5.36 µM) in series [7]; 6.25 µg/mL (≈ 10.7 µM) in series [8]; 12.5 µg/mL (≈ 21.4 µM) in [9]; 12.5 µg/mL (≈ 21.4 µM) in [11]. The MIC (with Proteus mirabilis Pm-5; in series [13]) was 6.25 µg/mL (≈ 10.7 µM) in each case.

`NC[C@H]1O[C@H](O[C@H]2[C@H](O)[C@@H](O[C@H]3O[C@H](CO)[C@@H](O)[C@H](N)[C@H]3O)[C@H](N)C[C@@H]2N)[C@H](O)[C@@H](O)[C@@H]1O` [KM-A, kanamycin A]: the MIC in series [1] was above 100 µg/mL; in series [2], above 100 µg/mL; in the series on Escherichia coli TB-705, above 100 µg/mL; in series [3] it was 100 µg/mL (≈ 206 µM); with Proteus inconstans In-27, above 100 µg/mL; in the series with Sarcina lutea PCI 1001, 12.5 µg/mL (≈ 25.8 µM). Also, the MIC in [4], in series [6], in [7], in [8], in series [9] and in series [11] was above 100 µg/mL in each case. Further, the MIC (in the series on Proteus mirabilis Pm-5; in [13]) was above 100 µg/mL throughout.

Turning to `NCC[C@H](O)C(=O)N[C@@H]1C[C@H](N)[C@@H](O[C@H]2O[C@H](CN)[C@@H](O)[C@H](O)[C@H]2O)[C@H](O)[C@H]1O[C@H]1O[C@H](CO)[C@@H](O)[C@H](N)[C@H]1O` [amikacin], in series [14], the toxicity entry is reported as “approximately the same as kanamycin A”. Besides, the “effect against kanamycin A resistant strains” value in series [15] is reported as “effective against kanamycin A resistant strains”.
